Assay results as given in ChEMBL document CHEMBL1131698, “Platelet glycoprotein IIb/IIIa receptor antagonists derived from isoxazolidines” (Bioorg Med Chem Lett, 1999).

Species: Homo sapiens
Experiment: Compound was tested for its in vitro activity in the inhibition of platelet aggregation using human platelet rich plasma
Type: functional

| SMILES | IC50 [µM] |
| --- | --- |
| Cc1cccc(S(=O)(=O)N[C@@H](CNC(=O)C[C@@H]2C[C@H](c3ccc(C(=N)N)cc3)N(c3ccccc3)O2)C(=O)O)c1 | 0.53 |
| Cc1cccc(S(=O)(=O)N[C@@H](CNC(=O)C[C@H]2C[C@H](c3ccc(C(=N)N)cc3)N(C)O2)C(=O)O)c1 | 1.5 |
| CCCCOC(=O)N[C@@H](CNC(=O)C[C@@H]1C[C@H](c2ccc(C(=N)N)cc2)N(C)O1)C(=O)O | 0.164 |
| Cc1cccc(S(=O)(=O)N[C@@H](CNC(=O)C[C@@H]2C[C@H](c3ccc(C(=N)N)cc3)N(Cc3ccccc3)O2)C(=O)O)c1 | 0.19 |

Compounds with a lower IC50, results first:

| IC50 [µM] | SMILES |
| --- | --- |
| 0.14 | Cc1cccc(S(=O)(=O)N[C@@H](CNC(=O)C[C@@H]2C[C@H](c3ccc(C(=N)N)cc3)N(C(C)C)O2)C(=O)O)c1 |
| 0.084 | Cc1noc(C)c1S(=O)(=O)N[C@@H](CNC(=O)C[C@@H]1C[C@H](c2ccc(C(=N)N)cc2)N(C)O1)C(=O)O |
| 0.058 | Cc1ccccc1S(=O)(=O)N[C@@H](CNC(=O)C[C@@H]1C[C@H](c2ccc(C(=N)N)cc2)N(C)O1)C(=O)O |
| 0.028 | Cc1cccc(S(=O)(=O)N[C@@H](CNC(=O)C[C@@H]2C[C@H](c3ccc(C(=N)N)cc3)N(C)O2)C(=O)O)c1 |
